Data on one compound can be found in US12545674B2, “Crystal of trifluoromethyl/chloro disubstituted sulfonamide selective BCL-2 inhibitor” (priority 2020, dated 2026).

Series [1] has as its system human B-cell leukemia RS4;11 subcutaneous xenograft. The series is described as follows: Pharmacodynamics in human B-cell leukemia RS4;11 subcutaneous xenograft model. Format: in vivo, NOD/SCID mice. The conditions noted are these: 25 mg/kg p.o. single dose, Day 17 after end of treatment. The source says: NOD/SCID mice, female, aged 9-10 weeks (ages upon tumor cell grafting), body weight of 16.3-22.0 g. The mice were purchased from Beijing AniKeeper Biotech Co., Ltd. (production license number: SCXK (Jing) 2017-0006; animal certification number: 11402400013155). Breeding environment: SPF grade. Mice were grafted subcutaneously on the right anterior dorsal side with 1×10^7 RS4;11 cells. The day of grafting was defined as day 0. When the mean tumor volume was 240 mm^3, the mice were randomized by the tumor size. The administration was performed as per Table 16 below.
Clinical symptoms observed during the study were recorded in the raw data. Calculation formula for tumor volume: Tumor volume (mm^3)=½×(a×b^2) (where a represents long diameter and b represents short diameter). The data were collected using StudyDirector™ software (version No. 3.1.399.19, supplier: Studylog System, Inc., S.San Francisco, CA, USA) in the study, including measurements of the long and short diameters of the tumor and body weights of the animals. The raw data obtained from a balance and a vernier caliper were directly input into the software, and any change in the data was recorded. Relative tumor proliferation rate (T/C %) refers to the percentage of the relative tumor volume or tumor weight of the treatment and control groups at a certain time point. The calculation formula is as follows: T/C %=TRTV/CRTV×100%(TRTV:mean RTV for treatment group;CRTV:mean RTV for vehicle control group;RTV=Vt/V0, where V0 denotes the tumor volume of the animal upon grouping, and Vt denotes the tumor volume of the animal after treatment).
(T and C are the relative tumor volume (RTV) or tumor weight (TW) at a particular time point for the treatment and control groups, respectively).
All experimental results were expressed as mean tumor volume±SEM (standard error of mean). The relative tumor volume of the treatment group was compared with that of the control group for any significant difference by the independent sample T test. All the data were analyzed using SPSS 18.0. p<0.05 was defined as a significant difference.

Series [2] in a line: In vitro stability in liver microsomes, human. Format: in vitro ADME. The conditions noted are these: 1 μM. The protocol: (§1) 300 μL of the final incubation system contains 30 μL of liver microsomes (protein concentration: 5 mg/mL), 30 μL of NADPH+MgCl2, 3 μL of the test compound (in acetonitrile), and 237 μL of PBS buffer (pH 7.4). Among them, the proportion of the organic solvent (acetonitrile) was 1% (volume ratio). Samples were prepared in duplicate for each species (mouse, rat and human), with 0.3 mL each. […] 50 μL of the mixture was taken at 0 min, 15 min, 30 min and 60 min, and 300 μL of glacial acetonitrile containing an internal standard was added to terminate the reaction. 50 μL of the incubated sample was added with 300 μL of glacial acetonitrile containing an internal standard (20 ng/mL diazepam) for precipitation. The mixture was vortexed for 5 min, and centrifuged (13,000 rpm, 20° C.) for 10 min 70 μL of supernatant was taken and 70 μL of ultrapure water was added for dilution and homogeneous mixing. 1 μL of sample was injected for analysis.
A general note: Liver microsomes are a subcellular fraction often used to study metabolism.

Series [3] can be described thus: In vitro stability in liver microsomes, rat. The following applies: 1 μM. Format: in vitro ADME. As to the method:
as §1

Series [4] can be described thus: In vitro stability in liver microsomes, mouse. Format: in vitro ADME. The conditions noted are these: 1 μM. The protocol: as §1
For series [5], the system named is human platelet caspase-3 activity. The series is described as follows: Human platelet toxicity study (caspase-3 activity assay). Format: cell-based. The conditions noted are these: human platelets, compound concentration 1 μM, 90 min; normalized, reference ABT-199. The protocol: 10 mL of human whole blood was collected using a heparin sodium anticoagulation tube, mixed well by turning upside down, and centrifuged at 90 g for 10 min. The supernatant was collected and centrifuged at 1950 g for 10 min. The supernatant was discarded, and the residue was resuspended in 4 mL of PBS, and centrifuged at 1190 g for 5 min. The procedure was repeated once. The supernatant was discarded, and the platelets were resuspended in PBS and adjusted to a density of 2-3×10^8 cells/mL. Cells were seeded into a 96-well plate at a density of […] and at 100 μL/well. 50 μL of control buffer was added to each negative control well, and 50 μL of compound at a corresponding concentration was added to each compound well to adjust the final concentration of the compound to 2.5 μM or 1 μM, followed by incubation in an incubator at 37° C. for 90 min. The liquids in the 96-well plate were transferred to 1.5 mL centrifuge tubes. […] The resulting mixture was mixed gently, and the plate was read by a PE Envision multi-functional microplate reader (excitation: 360 nm, emission: 460 nm) once every 10 min for 6 times. Caspase-3 activity was determined based on the intensity of the released AMC fluorescence, that is the slope of the fitted line to which each well corresponds represents Caspase activity (all data were normalized and the reference was ABT-199).

Structures are written as SMILES.

As for `CC1(C)CCC(CN2CCN(c3ccc(C(=O)NS(=O)(=O)c4ccc(NC[C@H]5COCCO5)c([N+](=O)[O-])c4)c(Oc4cnc5[nH]ccc5c4)c3)CC2)=C(c2ccc(C(F)(F)F)cc2Cl)C1` [Compound of formula I], in series [1], the T/C (usually the result in the treated group divided by that in the control group, in per cent) is given as 29.8%; the TGI (in general, how far tumour growth fell short of that in controls) amounted to 70.2%; the “Tumor volume (x ± S)” value turned out to be 600.39 ± 32.88 mm^3. The “Human Residuals at 60 min” value in series [2] is 86.3%. Further, the “Rat Residuals at 60 min” value in series [3] amounted to 90.9%. The “Mouse Residuals at 60 min” value in series [4] was determined as 73.9%. The “Slope (caspase-3 activity)” value in series [5] worked out at 0.59.
